Experiment: xn = mol fraction of the nth substance listed
Details: 101.3 kPa, Liquid; for viscosity: Capillary tube (Ostwald / Ubbelohde) method

OCCCCO [1,4-butanediol] + O
Details	mass density [kg/m3]	speed of sound [m/s]	viscosity [mPa·s]
298.15 K, x2 = 0.055	1013.64	1609	68.26
298.15 K, x2 = 0.1534	1015.1	1623.6	59.73
298.15 K, x2 = 0.2472	1016.59	1637.5	51.48
298.15 K, x2 = 0.3542	1018.46	1658.6	42.26
298.15 K, x2 = 0.4531	1020.08	1678.2	33.95
298.15 K, x2 = 0.498	1020.71	1686	30.26
298.15 K, x2 = 0.5578	1021.37	1695.3	25.51
298.15 K, x2 = 0.6513	1021.78	1707.7	18.65
298.15 K, x2 = 0.7496	1020.65	1715.9	12.57
298.15 K, x2 = 0.8475	1016.21	1702.6	7.83
298.15 K, x2 = 0.9081	1010.66	1663.1	5.31
298.15 K, x2 = 0.9152	1009.83	1655.8	5.014
298.15 K, x2 = 0.9253	1008.58	1644.1	4.588
298.15 K, x2 = 0.9355	1007.24	1630.7	4.148
298.15 K, x2 = 0.9543	1004.56	1601.1	3.3
298.15 K, x2 = 0.955	1004.46	1599.8	3.267
298.15 K, x2 = 0.9597	1003.74	1591.3	3.045
298.15 K, x2 = 0.9699	1002.14	1571.1	2.544
298.15 K, x2 = 0.9804	1000.42	1547.9	2.001
298.15 K, x2 = 0.9901	998.77	1523.9	1.468
298.15 K, x2 = 0.9924	998.37	1517.8	1.337
298.15 K, x2 = 0.9955	997.83	1509.5	1.158
308.15 K, x2 = 0.055	1007.37	1591	42.31
308.15 K, x2 = 0.1534	1008.7	1604.6	37.48
308.15 K, x2 = 0.2472	1010.06	1617.7	32.83
308.15 K, x2 = 0.3542	1011.78	1637.1	27.6
308.15 K, x2 = 0.4531	1013.29	1655.1	22.83
308.15 K, x2 = 0.498	1013.88	1662.5	20.69
308.15 K, x2 = 0.5578	1014.52	1671	17.9
308.15 K, x2 = 0.6513	1014.99	1684.1	13.72
308.15 K, x2 = 0.7496	1014.15	1693	9.702
308.15 K, x2 = 0.8475	1010.43	1685.5	6.132
308.15 K, x2 = 0.9081	1005.69	1655	4.059
308.15 K, x2 = 0.9152	1004.98	1648.7	3.816
308.15 K, x2 = 0.9253	1003.91	1639.7	3.469
308.15 K, x2 = 0.9355	1002.76	1628.5	3.115
308.15 K, x2 = 0.9543	1000.47	1604.2	2.45
308.15 K, x2 = 0.955	1000.37	1603	2.425
308.15 K, x2 = 0.9597	999.76	1595.9	2.255
308.15 K, x2 = 0.9699	998.39	1579.2	1.881
308.15 K, x2 = 0.9804	996.91	1560.2	1.487
308.15 K, x2 = 0.9901	995.5	1540.2	1.112
308.15 K, x2 = 0.9924	995.16	1535.5	1.022
308.15 K, x2 = 0.9955	994.7	1528.5	0.899
318.15 K, x2 = 0.055	1001.62	1574.6	27.43
318.15 K, x2 = 0.1534	1002.81	1586.7	24.34
318.15 K, x2 = 0.2472	1004.04	1598.8	21.39
318.15 K, x2 = 0.3542	1005.59	1615.4	18.04
318.15 K, x2 = 0.4531	1006.95	1632.8	15
318.15 K, x2 = 0.498	1007.49	1640	13.63
318.15 K, x2 = 0.5578	1008.07	1648.7	11.84
318.15 K, x2 = 0.6513	1008.53	1661.1	9.148
318.15 K, x2 = 0.7496	1007.83	1671.4	6.533
318.15 K, x2 = 0.8475	1004.59	1669	4.179
318.15 K, x2 = 0.9081	1000.44	1645	2.8
318.15 K, x2 = 0.9152	999.82	1640.3	2.639
318.15 K, x2 = 0.9253	998.88	1633.3	2.408
318.15 K, x2 = 0.9355	997.88	1624.2	2.173
318.15 K, x2 = 0.9543	995.86	1604.9	1.732
318.15 K, x2 = 0.955	995.78	1603.8	1.716
318.15 K, x2 = 0.9597	995.24	1598.2	1.604
318.15 K, x2 = 0.9699	994.03	1584.8	1.357
318.15 K, x2 = 0.9804	992.74	1568.2	1.098
318.15 K, x2 = 0.9901	991.5	1552.7	0.853
318.15 K, x2 = 0.9924	991.2	1548.3	0.794
318.15 K, x2 = 0.9955	990.8	1542.8	0.714
328.15 K, x2 = 0.055	994.94	1554.9	18.38
328.15 K, x2 = 0.1534	996.05	1564.8	16.32
328.15 K, x2 = 0.2472	997.2	1575.6	14.35
328.15 K, x2 = 0.3542	998.64	1590.3	12.12
328.15 K, x2 = 0.4531	999.93	1605	10.08
328.15 K, x2 = 0.498	1000.44	1610.8	9.167
328.15 K, x2 = 0.5578	1001.01	1618.6	7.972
328.15 K, x2 = 0.6513	1001.51	1631.1	6.178
328.15 K, x2 = 0.7496	1000.99	1641.4	4.438
328.15 K, x2 = 0.8475	998.24	1642.3	2.877
328.15 K, x2 = 0.9081	994.62	1626.3	1.965
328.15 K, x2 = 0.9152	994.08	1623.2	1.858
328.15 K, x2 = 0.9253	993.26	1618	1.705
328.15 K, x2 = 0.9355	992.38	1611.8	1.549
328.15 K, x2 = 0.9543	990.62	1597.3	1.257
328.15 K, x2 = 0.955	990.55	1596.3	1.246
328.15 K, x2 = 0.9597	990.08	1592.2	1.172
328.15 K, x2 = 0.9699	989.02	1581.9	1.009
328.15 K, x2 = 0.9804	987.89	1569.6	0.837
328.15 K, x2 = 0.9901	986.81	1558.3	0.674
328.15 K, x2 = 0.9924	986.55	1555.3	0.635
328.15 K, x2 = 0.9955	986.2	1550.2	0.581
338.15 K, x2 = 0.055	988.66	1531.3	12.72
338.15 K, x2 = 0.1534	989.67	1540.8	11.28
338.15 K, x2 = 0.2472	990.72	1549.4	9.897
338.15 K, x2 = 0.3542	992.05	1562.2	8.335
338.15 K, x2 = 0.4531	993.23	1575.1	6.914
338.15 K, x2 = 0.498	993.7	1580.7	6.279
338.15 K, x2 = 0.5578	994.23	1588.5	5.449
338.15 K, x2 = 0.6513	994.7	1599	4.213
338.15 K, x2 = 0.7496	994.27	1611.3	3.033
338.15 K, x2 = 0.8475	991.81	1615.6	2
338.15 K, x2 = 0.9081	988.57	1606.6	1.404
338.15 K, x2 = 0.9152	988.08	1605.1	1.335
338.15 K, x2 = 0.9253	987.35	1601.7	1.235
338.15 K, x2 = 0.9355	986.56	1597.4	1.133
338.15 K, x2 = 0.9543	984.97	1587.8	0.941
338.15 K, x2 = 0.955	984.91	1586.8	0.934
338.15 K, x2 = 0.9597	984.49	1584.2	0.885
338.15 K, x2 = 0.9699	983.54	1577.1	0.776
338.15 K, x2 = 0.9804	982.52	1569	0.662
338.15 K, x2 = 0.9901	981.56	1560	0.553
338.15 K, x2 = 0.9924	981.32	1558.2	0.527
338.15 K, x2 = 0.9955	981.01	1554.5	0.491

Source: the NIST ThermoML archive (doi:10.1021/je0340755)
